# According to the supplement of paper PMC11451515:
# Tested on: P12-Ichikawa
# Test: cell viability relative to DMSO control; higher = less cytotoxic
# Settings: 48 h
# Procedure, shortened: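 Cells were incubated for 48 h at 37°C before CellTiter-Glo One luminescence was read. The cells were NOMO1 or SEM (500 cells/well) or P12-Ichikawa (1000 cells/well) leukemia cells, adapted for at least four passages in each medium and seeded in 1536-well plates (5 μl). Dosing used library compounds in DMSO applied by pin over 11 threefold points, 47 μM to 0.79 nM. Viability is the per-plate percentage of DMSO wells, with cell-free wells as background.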
# [1] = HPLM + 10% dialyzed FBS, 0.000781 µM
# [2] = HPLM + 10% dialyzed FBS, 0.00234 µM
# [3] = HPLM + 10% dialyzed FBS, 0.00702 µM
# [4] = HPLM + 10% dialyzed FBS, 0.0211 µM
# [5] = HPLM + 10% dialyzed FBS, 0.0632 µM
# [6] = HPLM + 10% dialyzed FBS, 0.19 µM
# [7] = HPLM + 10% dialyzed FBS, 0.569 µM
# [8] = HPLM + 10% dialyzed FBS, 1.71 µM
# [9] = HPLM + 10% dialyzed FBS, 5.12 µM
# [10] = HPLM + 10% dialyzed FBS, 15.4 µM
# [11] = HPLM + 10% dialyzed FBS, 46.1 µM
# [12] = RPMI 5 mM glucose + 10% FBS, 0.000781 µM
# [13] = RPMI 5 mM glucose + 10% FBS, 0.00234 µM
# [14] = RPMI 5 mM glucose + 10% FBS, 0.00702 µM
# [15] = RPMI 5 mM glucose + 10% FBS, 0.0211 µM
# [16] = RPMI 5 mM glucose + 10% FBS, 0.0632 µM
# [17] = RPMI 5 mM glucose + 10% FBS, 0.19 µM
# [18] = RPMI 5 mM glucose + 10% FBS, 0.569 µM
# [19] = RPMI 5 mM glucose + 10% FBS, 1.71 µM
# [20] = RPMI 5 mM glucose + 10% FBS, 5.12 µM
# [21] = RPMI 5 mM glucose + 10% FBS, 15.4 µM
# [22] = RPMI 5 mM glucose + 10% FBS, 46.1 µM
# [23] = RPMI 5 mM glucose + 10% dialyzed FBS, 0.000781 µM
# [24] = RPMI 5 mM glucose + 10% dialyzed FBS, 0.00234 µM
# [25] = RPMI 5 mM glucose + 10% dialyzed FBS, 0.00702 µM
# [26] = RPMI 5 mM glucose + 10% dialyzed FBS, 0.0211 µM
# [27] = RPMI 5 mM glucose + 10% dialyzed FBS, 0.0632 µM
# [28] = RPMI 5 mM glucose + 10% dialyzed FBS, 0.19 µM
# [29] = RPMI 5 mM glucose + 10% dialyzed FBS, 0.569 µM
# [30] = RPMI 5 mM glucose + 10% dialyzed FBS, 1.71 µM
# [31] = RPMI 5 mM glucose + 10% dialyzed FBS, 5.12 µM
# [32] = RPMI 5 mM glucose + 10% dialyzed FBS, 15.4 µM
# [33] = RPMI 5 mM glucose + 10% dialyzed FBS, 46.1 µM
SMILES,cell viability [1],cell viability [2],cell viability [3],cell viability [4],cell viability [5],cell viability [6],cell viability [7],cell viability [8],cell viability [9],cell viability [10],cell viability [11],cell viability [12],cell viability [13],cell viability [14],cell viability [15],cell viability [16],cell viability [17],cell viability [18],cell viability [19],cell viability [20],cell viability [21],cell viability [22],cell viability [23],cell viability [24],cell viability [25],cell viability [26],cell viability [27],cell viability [28],cell viability [29],cell viability [30],cell viability [31],cell viability [32],cell viability [33]
O=C(C[C@@H]1C/C=C\CCC(=O)O[C@H](c2ccccc2)CNC1=O)NCc1ccc(Cl)cc1,99.1%,110%,79.7%,117%,126%,122%,116%,119%,123%,116%,117%,95.1%,117%,70%,112%,115%,118%,128%,128%,115%,119%,123%,102%,115%,79.3%,120%,120%,120%,123%,119%,114%,120%,113%
Cn1c(=O)c2[nH]cnc2n(C)c1=O,104%,113%,116%,114%,111%,110%,116%,109%,114%,106%,104%,112%,113%,115%,117%,109%,115%,124%,106%,112%,108%,105%,115%,111%,113%,107%,111%,116%,107%,108%,111%,99.7%,94.2%
OC1=CC2=C(C(=O)\C=C(/O2)C3=CC=CC=C3)C(=C1O)O,114%,110%,120%,113%,113%,106%,111%,109%,64.9%,9.59%,10.4%,117%,112%,104%,118%,120%,111%,117%,116%,114%,13.3%,12%,113%,117%,120%,112%,111%,110%,112%,118%,108%,23.7%,23.2%
COc1ccc2c(OCc3nnc4ccc(-c5ccccc5)nn34)ccnc2c1,101%,116%,106%,104%,104%,97.5%,104%,95.9%,103%,103%,28.1%,115%,117%,123%,122%,114%,106%,112%,117%,106%,124%,122%,123%,118%,105%,111%,105%,105%,106%,103%,106%,109%,77.7%
CCCOc1ccc2[nH]c(NC(=O)OC)nc2c1,125%,122%,107%,99.4%,54.5%,35.3%,17.2%,21.8%,25.3%,18.8%,23.2%,–,–,–,–,–,–,–,–,–,–,–,–,–,–,–,–,–,–,–,–,–,–
Nc1nc(Nc2ccc([S+](N)(=O)[O-])cc2)nn1C(=O)c1c(F)cccc1F,104%,109%,103%,106%,112%,110%,106%,112%,90.7%,101%,21.5%,107%,106%,110%,113%,104%,105%,111%,101%,83.7%,81.7%,23.1%,111%,106%,105%,107%,114%,115%,109%,108%,84.9%,86.6%,24.3%
C[N]1N=CC2=C1C=C(C(=C2)OC3=CC=C(NC(=O)\C4=C\C=C(\C)N(C4=O)C5=CC=C(F)C=C5)C=C3F)C6=C[NH]N=C6,99.5%,113%,117%,114%,114%,127%,123%,104%,78.1%,12%,8.97%,104%,109%,115%,117%,127%,130%,130%,128%,78.9%,16.1%,10.5%,119%,123%,130%,125%,124%,138%,129%,128%,90.2%,26.6%,16.3%
O=C(NCCO[N+](=O)[O-])c1cccnc1,112%,113%,118%,122%,115%,117%,115%,116%,113%,121%,118%,112%,126%,120%,130%,121%,119%,126%,126%,127%,126%,118%,112%,116%,109%,114%,111%,123%,111%,112%,112%,111%,117%
C=C[C@H]1CN2CCC1C[C@@H]2[C@@H](O)c1ccnc2ccccc12 (some centres undefined),101%,99.5%,95.9%,99.6%,100%,92.4%,87.7%,93.6%,85.8%,90.7%,78.2%,93.8%,93.4%,99.5%,94.7%,103%,90.9%,86.4%,92.3%,90.8%,83.3%,67.8%,101%,89.4%,91.7%,96.6%,97.2%,92.6%,96.5%,81.7%,84.5%,81.8%,67.9%
CC(=O)OCC(=O)[C@@]12OC(C)(C)O[C@@H]1C[C@H]3[C@@H]4C[C@H](F)C/5=C/C(=O)/C=C\[C@]5(C)[C@@]4(F)[C@@H](O)C[C@]23C,107%,119%,111%,117%,110%,94.7%,76.7%,74.5%,71.6%,74.5%,72.4%,106%,128%,119%,115%,115%,84.2%,68.5%,70.8%,62.1%,64.2%,67.5%,117%,107%,114%,107%,87.8%,84.4%,62.8%,57.6%,55.1%,54.7%,56.9%
CCOC(CN1C(=O)[C@](CC(=O)Nc2ccc(C)cc2)(NC(=O)Nc2ccc(C)cc2)c2ccccc21)OCC,103%,105%,109%,111%,105%,109%,115%,108%,111%,111%,19.8%,102%,107%,101%,108%,105%,105%,105%,117%,101%,106%,34.8%,100%,104%,93.7%,107%,102%,104%,116%,96.3%,102%,98%,37.6%
O=[N+]([O-])c1ccc(Nc2ccccc2-c2ccccc2)c2nonc12,85.2%,90.1%,92.4%,91.2%,85.1%,90.4%,94.2%,96.7%,90.6%,91%,89.4%,83.6%,91.2%,86.4%,91.1%,90.6%,88%,93.4%,95.4%,90.7%,96.2%,86.5%,89.6%,87.1%,84.8%,92.3%,93.8%,97.6%,94.1%,90.7%,88.7%,95.2%,84.9%
C/C(=C\c1csc(C)n1)[C@@H]1C[C@@H]2O[C@@H]2CCC[C@H](C)[C@H](O)[C@@H](C)C(=O)C(C)(C)[C@@H](O)CC(=O)O1,37.2%,25.2%,25%,26.8%,27.1%,24.6%,23.9%,25.2%,21.1%,21.5%,22.6%,28.8%,14.8%,19.1%,20.3%,20%,20.6%,21.6%,20.8%,17.4%,18.1%,19.3%,67.2%,27.9%,33.6%,27.2%,34.7%,33.1%,33.7%,31.4%,29.1%,31.3%,35.9%
Cn1cc(-c2cnn3c(N)c(Br)c([C@@H]4CCCNC4)nc23)cn1,96.1%,102%,99.5%,97.5%,102%,99.7%,91.3%,86.4%,16.8%,5.55%,6.43%,91.6%,98.8%,94%,100%,93.4%,96.5%,93.8%,77.3%,13.1%,3.15%,3.91%,86.9%,103%,95.9%,95.1%,89.8%,99%,90.2%,77.3%,12.2%,4.05%,5.37%
CN1CC/C(CC1)=C3\c4ccccc4CC(=O)c2sccc23,117%,127%,123%,120%,119%,129%,134%,126%,129%,120%,109%,–,–,–,–,–,–,–,–,–,–,–,–,–,–,–,–,–,–,–,–,–,–
Cn1cnc(-c2cc3nccc(Oc4ccc(NC(=S)NC(=O)Cc5ccccc5)cc4F)c3s2)c1,79%,85.6%,77.3%,92.7%,91.4%,91.5%,94.1%,87.8%,83.9%,71.8%,15.2%,80.9%,82.9%,80.5%,87.1%,84.7%,85.2%,87.1%,92.6%,82.7%,58.5%,7.61%,80.4%,87.6%,83.1%,91.8%,96.9%,93.7%,85.6%,95.9%,82.6%,66.3%,15.4%
